# Measured values as given in patent publication US6407104B1, “Pyrrolo[1,2-a]pyrazine spla2 inhibitor” (Shionogi & Co., Ltd., priority 1998, dated 2002).
# Counter-ions that a name gives are not always drawn.
# Experiments:
# [1] = target: T1, recombinant human secretory phospholipase A2 (Homo sapiens, UniProt P14555); experiment: Inhibition Test of Human Secretory Phospholipase A2 (chromogenic assay); type: biochemical; conditions: sPLA2 50 ng/well, 40° C., 30 minutes, OD 405 nm, 96 well microtiterplate
# T1 sequence (P14555 21-144): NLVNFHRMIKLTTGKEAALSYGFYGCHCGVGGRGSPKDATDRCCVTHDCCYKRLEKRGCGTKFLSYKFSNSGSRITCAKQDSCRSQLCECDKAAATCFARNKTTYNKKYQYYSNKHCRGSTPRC
# From the text: Test Example: Inhibition Test of Human Secretory Phospholipase A2
# In order to identify and evaluate an inhibitor of recombinant human secretory phospholipase A2, the following chromogenic assay is utilized. The assay herein has been applied for high volume screening wherein 96 well microtiterplate is used. A general explanation for such assay is described in “Analysis of Human Synovial Fluid Phospholipase A2 on Short Chain Phosphatidylcholine-Mixed Micelles: Development of a Spectrophotometric Assay Suitable for a Micortiterplate Reader” (Analytical Biochemistry, 204, pp 190-197, 1992 by Laure. J. Reynolds. Lori L. Hughes and Edward A. Dennis: the disclosure of which is incorporated herein for reference.
# pH 7.5 (adjusted with NaOH)
# pH 4.5 (adjusted with acetic acid)
# 1 mg of sPLA2 is dissolved in 1 ml of an enzyme buffer. Thereafter, the solution is maintained at 4° C.
# In the assay, 5 μl of the solution is diluted with 1995 μl of the reaction buffer to be used.
# 198 mg of 5,5′-dithiobis-2-[…] (manufactured by Wako Pure Chemicals) is dissolved in 100 ml of H2O
# H 7.5 (adjusted with NaOH)
# 100 mg of racemic 1,2-bis(heptanoylthio)-1,2-dideoxy-sn-glycero-3-phospholylcholine is dissolved in 1 ml of chloroform.
# 624.9 mg of Triton-X 100 is dissolved in the reaction buffer.
# Enzyme Reaction: for 1 Plate of Microtiterplate
# 1) 0.106 ml of the substrate solution is put in a centrifugal tube, and nitrogen gas is jetted to remove the solvent. 0.54 ml of Triton-X 100 is added thereto, the mixture is stirred, thereafter it is sonified in a bath type sonification to dissolve. To the resulting product are added 17.8 ml of the reaction buffer and 0.46 ml of DTNB, and 0.18 ml each of the admixture is poured to wells of the 96 well microtiterplate.
# 2) 10 μl of a test compound (or solvent blank) are added in accordance with alignment of plates which has been previously set.
# 3) Incubation is effected at 40° C. for 15 minutes.
# 4) 20μl of an enzyme solution (sPLA2) which has been previously diluted (50 ng/well) are added to start reaction (40° C., 30 minutes).
# 5) Changes in absorbancy for 30 minutes are measured by a plate reader, and inhibition activity was calculated (OD: 405 nm).
# 6) IC50 was determined by plotting log concentration with respect to inhibition values within 10% to 90% inhibiting range.
melting point,IC50 [1],SMILES
250 to 265 °C,,CCc1c(C(=O)C(N)=O)c2c(OCC(=O)O)nc(C)cn2c1Cc1ccc(F)cc1 (as salt: Na) [Compound I-99]
260 to 263 °C,,CCc1c(C(=O)C(N)=O)c2c(OCC(=O)O)nc(C)cn2c1Cc1ccccc1-c1ccsc1 (as salt: Na) [Compound I-102]
151 to 152 °C,208 nM,CCc1c(C(=O)C(N)=O)c2c(OCC(=O)OC)nccn2c1Cc1ccccc1 [Compound I-1]
,11 nM,"CCc1c(C(=O)C(N)=O)c2c(OCC(=O)O)nccn2c1Cc1ccccc1 [Compound I-2, [6-Benzyl-7-ethyl-8-oxamoylpyrrolo[1,2-a]pyrazin-1-yl]oxyacetic acid]"
177 to 179 °C,2620 nM,COC(=O)COc1nccn2c(Cc3ccccc3)c(C3CC3)c(C(=O)C(N)=O)c12 [Compound I-3]
189 to 191 °C,35 nM,NC(=O)C(=O)c1c(C2CC2)c(Cc2ccccc2)n2ccnc(OCC(=O)O)c12 [Compound I-4]
165 to 166 °C,314 nM,CCc1c(C(=O)C(N)=O)c2c(OCC(=O)OC)nccn2c1Cc1cccs1 [Compound I-5]
225 to 227 °C,9 nM,CCc1c(C(=O)C(N)=O)c2c(OCC(=O)O)nccn2c1Cc1cccs1 [Compound I-6]
162 to 163 °C,389 nM,CCc1c(C(=O)C(N)=O)c2c(OCC(=O)OC)nccn2c1CC1CCCCC1 [Compound I-7]
205 to 206 °C,11 nM,CCc1c(C(=O)C(N)=O)c2c(OCC(=O)O)nccn2c1CC1CCCCC1 [Compound I-8]
154 to 155 °C,435 nM,CCc1c(C(=O)C(N)=O)c2c(OCC(=O)OC)nccn2c1Cc1cccc(OC)c1 [Compound I-9]
196 to 197.5 °C,14 nM,CCc1c(C(=O)C(N)=O)c2c(OCC(=O)O)nccn2c1Cc1cccc(OC)c1 [Compound I-10]
144 to 148 °C,194 nM,CCc1c(C(=O)C(N)=O)c2c(OCC(=O)OC)nccn2c1Cc1ccc2ccsc2c1 [Compound I-11]
209 to 211 °C,10 nM,CCc1c(C(=O)C(N)=O)c2c(OCC(=O)O)nccn2c1Cc1ccc2ccsc2c1 [Compound I-12]
182 to 183 °C,157 nM,COC(=O)COc1nccn2c(Cc3ccccc3)c(C)c(C(=O)C(N)=O)c12 [Compound I-13]
207 to 208 °C,11 nM,Cc1c(C(=O)C(N)=O)c2c(OCC(=O)O)nccn2c1Cc1ccccc1 [Compound I-14]
165 to 166 °C,512 nM,CCc1c(C(=O)C(N)=O)c2c(OCC(=O)OC)nccn2c1CC1CCCC1 [Compound I-15]
203 to 205 °C,6 nM,CCc1c(C(=O)C(N)=O)c2c(OCC(=O)O)nccn2c1CC1CCCC1 [Compound I-16]
192 to 194 °C,172 nM,CCc1c(C(=O)C(N)=O)c2c(OCC(=O)OC)nc(C)cn2c1Cc1ccccc1 [Compound I-17]
207 to 208 °C,9 nM,"CCc1c(C(=O)C(N)=O)c2c(OCC(=O)O)nc(C)cn2c1Cc1ccccc1 [Compound I-18, [6-Benzyl-7-ethyl-3-methyl-8-oxamoylpyrrolo[1,2-a]pyrazin-1-yl]oxyacetic acid]"
167 to 168 °C,562 nM,CCc1c(C(=O)C(N)=O)c2c(OCC(=O)OC)nc(C)cn2c1Cc1ccc(F)cc1 [Compound I-19]
204 to 205 °C,,CCc1c(C(=O)C(N)=O)c2c(OCC(=O)O)nc(C)cn2c1Cc1ccc(F)cc1 [Compound I-20]
164.5 to 165.5 °C,41 nM,CCc1c(C(=O)C(N)=O)c2c(OCC(=O)OC)nc(C)cn2c1Cc1ccccc1-c1ccccc1 [Compound I-21]
192 to 194 °C,8 nM,"CCc1c(C(=O)C(N)=O)c2c(OCC(=O)O)nc(C)cn2c1Cc1ccccc1-c1ccccc1 [Compound I-22, [6-(2-Biphenylmethyl)-7-ethyl-3-methyl-8-oxamoylpyrrolo [1,2-a]pyrazin-1-yl]oxyacetic acid]"

melting point,IC50 [1],SMILES
135 to 136.5 °C,651 nM,CCc1c(C(=O)C(N)=O)c2c(OCC(=O)OC)nc(C)cn2c1CC1CCCC1 [Compound I-23]
192 to 193 °C,17 nM,CCc1c(C(=O)C(N)=O)c2c(OCC(=O)O)nc(C)cn2c1CC1CCCC1 [Compound I-24]
187 to 188 °C,196 nM,CCc1c(C(=O)C(N)=O)c2c(OCC(=O)OC)nc(C)cn2c1Cc1ccccc1F [Compound I-25]
218 to 219 °C,12 nM,CCc1c(C(=O)C(N)=O)c2c(OCC(=O)O)nc(C)cn2c1Cc1ccccc1F [Compound I-26]
134.5 to 136 °C,22 nM,CCc1c(C(=O)C(N)=O)c2c(OCC(=O)OC)nc(C)cn2c1Cc1ccccc1Cc1ccccc1 [Compound I-27]
180.5 to 182.5 °C,7 nM,CCc1c(C(=O)C(N)=O)c2c(OCC(=O)O)nc(C)cn2c1Cc1ccccc1Cc1ccccc1 [Compound I-28]
147 to 149 °C,56 nM,CCc1c(C(=O)C(N)=O)c2c(OCC(=O)OC)nc(C)cn2c1Cc1ccccc1-c1ccc(F)cc1 [Compound I-29]
175 to 177 °C,8 nM,CCc1c(C(=O)C(N)=O)c2c(OCC(=O)O)nc(C)cn2c1Cc1ccccc1-c1ccc(F)cc1 [Compound I-30]
161 to 163 °C,1170 nM,CCc1c(C(=O)C(N)=O)c2c(OCC(=O)OC)nc(C)cn2c1Cc1ccc(F)cc1F [Compound I-31]
208 to 210 °C,28 nM,CCc1c(C(=O)C(N)=O)c2c(OCC(=O)O)nc(C)cn2c1Cc1ccc(F)cc1F [Compound I-32]
,5 nM,"CCc1c(C(=O)C(N)=O)c2c(OCC(=O)O)nc(C)cn2c1Cc1ccccc1-c1cccs1 [Compound I-52, [7-Ethyl-3-methyl-8-oxamoyl-6-(2-(2-thienyl)benzyl)pyrrolo[1,2-a]pyrazin-1-yl]oxyacetic acid]"
,25 nM,CCc1c(C(=O)C(N)=O)c2c(SCC(=O)O)nc(C)cn2c1Cc1ccccc1-c1ccc(F)cc1 [Compound I-58]
,15800 nM,COC(=O)COc1nc(C)c(Cc2ccc(F)cc2)n2cc(C)c(C(=O)C(N)=O)c12 [Compound I-59]
,1210 nM,Cc1cn2c(Cc3ccc(F)cc3)c(C)nc(OCC(=O)O)c2c1C(=O)C(N)=O [Compound I-60]
,1550 nM,CCc1c(C(=O)C(N)=O)c2c(OCC(=O)OC)nc(C)cn2c1Cc1ccccc1-c1cccnc1 [Compound I-65]
,45 nM,CCc1c(C(=O)C(N)=O)c2c(OCC(=O)O)nc(C)cn2c1Cc1ccccc1-c1cccnc1 [Compound I-66]
,57 nM,CCc1c(C(=O)C(N)=O)c2c(OCC(=O)OC)nc(C)cn2c1Cc1ccccc1-c1ccc(OC)cc1 [Compound I-67]
,8 nM,CCc1c(C(=O)C(N)=O)c2c(OCC(=O)O)nc(C)cn2c1Cc1ccccc1-c1ccc(OC)cc1 [Compound I-68]
,77 nM,CCc1c(C(=O)C(N)=O)c2c(OCC(=O)OCCN3CCOCC3)nc(C)cn2c1Cc1ccccc1-c1ccc(F)cc1 [Compound I-96]
,78 nM,CCc1c(C(=O)C(N)=O)c2c(OCC(=O)OCCN3CCOCC3)nc(C)cn2c1Cc1ccccc1-c1cccs1 [Compound I-97]
,21 nM,CCc1c(C(=O)C(N)=O)c2c(OCC(=O)O)nc(C)cn2c1Cc1ccc(F)cc1 [Compound I-99]
,21 nM,CCc1c(C(=O)C(N)=O)c2c(OCC(=O)O)nc(C)cn2c1Cc1ccccc1-c1ccc(F)cc1 [Compound I-100]
,19 nM,CCc1c(C(=O)C(N)=O)c2c(OCC(=O)O)nc(C)cn2c1Cc1ccccc1-c1cccs1 [Compound I-101]
,20 nM,CCc1c(C(=O)C(N)=O)c2c(OCC(=O)O)nc(C)cn2c1Cc1ccccc1-c1ccsc1 [Compound I-102]

SMILES,melting point,IC50 [1]
"CCc1c(C(=O)C(N)=O)c2c(OCC(=O)O)nc(C)cn2c1Cc1ccccc1C#Cc1ccccc1 [Compound I-54, [7-Ethyl-3-methyl-8-oxamoyl-6-(2-phenylethynylbenzyl)pyrrolo [1,2-a]pyrazin-1-yl]oxyacetic acid]",,6 nM
